Reference: patent US20040053424A1, “Continuous-flow homogeneous biochemical assays based on mass spectrometric detection of known ligands” (priority 2000, published 2004)

Legend:
streptavidin = streptavidin (Streptomyces avidinii, UniProt P22629); test: homogeneous on-line mass spectrometric biochemical assay, streptavidin / fluorescein-biotin reporter; assay type: binding; settings: for effect of analyte injection on binding of reporter fluorescein-biotin to streptavidin (SIM MS signal at m/z 390): equal concentrations injected, 32 nmol/l streptavidin, 96 nmol/l fluorescein-biotin, FIG. 2
Chain of streptavidin (P22629 25-183): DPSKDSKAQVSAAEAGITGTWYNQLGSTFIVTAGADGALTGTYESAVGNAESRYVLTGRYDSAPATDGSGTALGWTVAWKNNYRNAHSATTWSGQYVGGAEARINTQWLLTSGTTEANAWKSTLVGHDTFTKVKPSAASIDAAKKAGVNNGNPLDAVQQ
Protocol: Streptavidin is a well-known affinity protein with a high affinity for biotin and biotinylated compounds. To a carrier solution consisting of 10 mmol/L ammonium formate/methanol (90:10, v/v) pumped at a flow rate of 50 μl/min a solution of 32 nmol/l streptavidin dissolved in 10 mmol/L ammonium formate was added at a flow rate of 50 μl/min. The mixture was pumped through a knitted […]. poly(tetrafluoroethylene) reaction coil with an internal volume of 17 μl. Subsequently, a solution of 96 nmol/l fluorescein-biotin dissolved in 10 mmol/L ammonium formate/methanol (90:10, v/v) was added at a flow rate of 100 μl/min. The mixture was then pumped through a knitted […]. poly(tetrafluoroethylene) reaction coil with an internal volume of 33 μl and subsequently introduced into a mass spectrometer equipped with an electrospray ionization (ESI) source. Mass spectrometry was operated in selected-ion monitoring (SIM) in the positive-ion (PI) mode on [M+H]+and on one or more intense fragment ions. The ESI source conditions for the streptavidin/biotin system: source temperature, 80° C.; capillary voltage, 3.2 kV. The sampling cone voltage was 30 and 60 V for biotin and fluorescein-labeled biotin, respectively.
At point 1, only carrier buffer was pumped into the mass spectrometer providing a reference background signal. […] At point 3, the streptavidin pump was switched on.

[1] = tested on: fab fragments of anti-digoxigenin antibodies (fab anti-digoxigenin); test: homogeneous on-line mass spectrometric biochemical assay, fab anti-digoxigenin / digoxigenin reporter; assay type: binding; settings: 100 nmol/l fab anti-digoxigenin, 200 nmol/l digoxigenin; FIG. 3, point 4
Protocol: To a carrier solution consisting of 10 mmol/L ammonium formate/methanol (90:10, v/v) pumped at a flow rate of 50 μl/min a solution of 100 nmol/l fab anti-digoxigenin dissolved in 10 mmol/L ammonium formate was added at a flow rate of 50 μl/min. The mixture was pumped through a knitted 300 μm i.d. poly(tetrafluoroethylene) reaction coil with an internal volume of 65 μl. Subsequently, a solution of 200 nmol/l digoxigenin dissolved in 10 mmol/L ammonium formate/methanol (90:10, v/v) is added at a flow rate of 100 ill/min. The mixture was then pumped through a knitted 300 μm i.d. poly(tetrafluoroethylene) reaction coil with an internal volume of 33 μl and subsequently introduced into a mass spectrometer equipped with an electrospray ionization (ESI) source. Mass spectrometry was operated in selected-ion monitoring (SIM) in the positive-ion (PI) mode on [M+H]+and on one or more intense fragment ions.
At point 1, only carrier buffer was pumped into the mass spectrometer providing a reference background signal. At point 2, the digoxigenin pump was switched on leading to an increase of the selected-ion monitoring MS signal at m/z 408 (the ammonium adduct of digoxigenin). At point 3, the fab anti-digoxigenin pump was switched on.

NNC(=O)CCCCCNC(=O)CCCC[C@@H]1SC[C@@H]2NC(=O)N[C@@H]21 [N-biotinyl-6-aminocaprioc hydrazide]
effect of analyte injection on binding of reporter fluorescein-biotin to streptavidin (SIM MS signal at m/z 390) (streptavidin): capable to prevent the binding of the reporter molecule, fluorescein-biotin, to streptavidin

fluorescein-biotin
effect of adding streptavidin on free reporter ligand (SIM MS signal at m/z 390) (streptavidin; FIG. 1, point 3): decrease of the concentration of free fluorescein-biotin

N[C@@H](CCCCNC(=O)CCCC[C@@H]1SC[C@@H]2NC(=O)N[C@@H]21)C(=O)O [N-biotin-L-lysine]
effect of analyte injection on binding of reporter fluorescein-biotin to streptavidin (SIM MS signal at m/z 390) (streptavidin): capable to prevent the binding of the reporter molecule, fluorescein-biotin, to streptavidin

C[C@H]1O[C@@H](O[C@H]2[C@@H](O)C[C@H](O[C@H]3[C@@H](O)C[C@H](O[C@H]4CC[C@@]5(C)[C@H](CC[C@@H]6[C@@H]5C[C@@H](O)[C@]5(C)[C@@H](C7=CC(=O)OC7)CC[C@]65O)C4)O[C@@H]3C)O[C@@H]2C)C[C@H](O)[C@@H]1O [digoxin]
effect of injection on free fab anti-digoxigenin binding sites / free digoxigenin concentration (SIM MS signal at m/z 408) [1]: decrease of free fab anti-digoxigenin binding sites and an increase of the free digoxigenin concentration

O=C(O)CCCC[C@@H]1SC[C@@H]2NC(=O)N[C@@H]21 [biotin]
effect of injection on free streptavidin binding sites / free fluorescein-biotin concentration (SIM MS signal at m/z 390) (streptavidin; FIG. 1, point 4): decrease of free streptavidin binding sites and an increase of the free fluorescein-biotin concentration | effect of analyte injection on binding of reporter fluorescein-biotin to streptavidin (SIM MS signal at m/z 390) (streptavidin): capable to prevent the binding of the reporter molecule, fluorescein-biotin, to streptavidin
